The subject of the assay is opiate rich areas of rat brain. Put plainly: In vivo labelling of rat brain determined by autoradiography. The note with it: i.v. in rats, preliminary. The procedure:
The radiolabelled products were stored at -20° C. and used within 1 week of purification. The material was dried down under a gentle stream of nitrogen and redissolved in normal saline prior to intravenous (IV) injection into rats (300 g, male Sprague-Dawley) in a volume of 100 μl/100 g body weight.
Cleavage of the 3-O-acetyl group of [^125 I]3-O-Acetylioxy ([^125 I]10) was performed starting with 315 μCi of [^125 I]3-O-Acetylioxydissolved in 50 μl of acetonitrile. To this solution at 25° C. was added 50 μl of concentrated aqueous ammonia solution and the reaction mixture was allowed to stand at 25° C. for 20 min. The reaction solvent was removed by careful evaporation under a stream of nitrogen. The residue was dissolved in 50 μl of 0.1% aqueous TFA/acetonitrile and purified by HPLC as described above for [^125 I]3-O-Acetylioxy to give [^125 I]1 (279 μCi, 88.5% yield). […] The [^125 I]ioxy eluted with the exact elution profile of unlabelled ioxy(1). The product was stored at -20° C. and used within 1 week of purification. The material was dried down under a gentle stream of nitrogen and redissolved in normal saline prior to intravenous (IV) injection into rats (300 g, male Sprague-Dawley) in a volume of 100 μl/100 g body weight.

Take `Oc1ccc2c3c1O[C@H]1[C@H]([125I])CC[C@@]4(O)[C@@H](C2)N(CC2CC2)CC[C@]314` [[^125 I]1]: the “in vivo labelling of rat brain” value was “could label opiate rich areas of rat brain”.
Turning to `CC(=O)Oc1ccc2c3c1O[C@H]1[C@H]([125I])CC[C@@]4(O)[C@@H](C2)N(CC2CC2)CC[C@]314` [[^125 I]10, [^125 I]3-Acetoxy-6β-Iodo-14-Hydroxy-17-Cyclopropylmethyl-4,5α-Epoxymorphinan], the “in vivo labelling of rat brain” value is “could label opiate rich areas of rat brain”.

These data come from US5336483A (priority 1993, dated 1994).
